According to patent US20250134902A1, “DRUG REPURPOSING FOR DELAYED TREATMENT OF ISCHEMIC STROKE” (UNIVESRITY OF NORTH TEXAS HEALTH SCIENCE CENTER, priority 2022, published 2025):
Entries after “also recorded” stand apart in the source; their conditions may differ.

Tests used:
[1] = test system: rat model of focal cerebral ischemia (tMCAO); test: Infarct and inflammation after tMCAO (TTC, Nissl, GFAP, Iba1); format: in vivo; details: for infarct size by TTC staining: 24 hours after a single dose administered 48 hours after tMCAO
Description: Assessment of infarct and inflammation. For immunohistochemical assessments 6 random animals were chosen from each group by a treatment-blinded observer to reduce the chance of bias. Nissl staining was performed using thionin. Rats were deeply anesthetized with isoflurane and transcardially perfused with saline and 4% formaldehyde. Brains were removed and post fixed for 48 hours. Coronal sections were made at […] through the region of the middle cerebral artery, affixed to gelatin-coated glass slides and stained. Four sections representing Bregma levels ˜0.7, 0.2, −0.8, and −2.12 were assessed for each animal. Sections were scanned with a 4× objective using a Keyence BZ-X800 microscope and analyzed using Image J. Infarct assessment was performed by a treatment blinded observer two separate times and the average infarct was assessed by determining the extent of histologically healthy tissue using the method of Swanson (Swanson et al., 1990).
The inflammatory response to stroke was observed using immunohistochemistry for glial fibrillary acidic protein (GFAP, Neomarkers RB-087, 1:5000) to assess astrogliosis and ionized calcium binding adapter molecule 1 (Iba1 Fujifilm Wako #019-19741, 1:5000), followed by a biotinylated secondary antibody (Jackson Immuno Research #711-065-152, 1:400). […] Area of staining the striatum, cortex, and dorsal hippocampus was assessed by a treatment-blinded observer using wide-field images captured with a 4× objective using a Keyence BZ-X800. The percent area above threshold was determined with Image J. Images were processed by a treatment-blinded observer using ImageJ by converting images to 8 bits, manually outlining the areas of interest using the corpus callosum to define the boundaries of the striatum and cortex, subtracting background and subjecting the images to auto thresholding. When more than one staining run was required to process tissue, the mean gray values of a standard ROI in the contralateral cortex were used to normalize between the runs.
(§1) Rats were sacrificed under isoflurane anesthesia 2, 6, or 24 hours after dosing, and brains were removed to assess protein expression in the ischemic and contralateral cortex by immunoblotting. Brains were rapidly removed, chilled for 2 min in ice-cold saline, and sliced into 2 mm coronal slices with a brain matrix for rapid 2,3,5 triphenyltetrazolium chloride (TTC) staining. Sections were immersed in 1% TTC for 1 minute at room temperature to reveal the extent of the infarct. Cortical penumbra tissue was collected, snap frozen, and stored at −80° C. for subsequent western blotting. Protein was extracted from tissue using T-PER™ reagent with HALT protease inhibitor (Thermo-Pierce), and concentrations were determined with the PIERCE® BCA assay (Thermo-Pierce). Protein was separated on 4-20% SDS-PAGE gels (BioRad) and transferred to nitrocellulose. Blots were probed with primary antibodies for BDNF (Abcam ab226842; 1:1000) and goat anti-rabbit-HRP secondary (Thermo 32260; 1:10,000). Bands were visualized by ECL with PIERCE® SUPERSIGNAL® West Dura Femto (Thermo-Pierce) reagent using a UVP EpiChemi3. Density was assessed with Image J and normalized to β-actin (Thermo MA1-91399; 1:1000).

[2] = Pharmacokinetics of per oral oxeladin in plasma and brain; format: in vivo, rat; details: for time after dosing at which detected in brain / time after dosing at which detected in plasma: rat, 135 mg/kg
Description: Evaluating the pharmacokinetics of Sigma receptor agonists. […] Whole blood was harvested into EDTA coated tubes at 30, 60, 120, 240, 720, and 1440 minutes from rats following euthanasia by CO2 inhalation. Plasma was processed from whole blood by centrifugation for 10 min at 10,000 rpm and frozen at −80° C. until assayed. The brains were collected, weighed, snap frozen in liquid nitrogen, and stored at −80° C. until processed.
For standards, 98 μl blank plasma was added to an Eppendorf tube spiked with 2 μl of […] (IS). For QCs, add 98.8 μl blank plasma was added to an Eppendorf tube spiked with 1.2 μl of IS. 100 μl plasma was mixed with 200 μl of acetonitrile containing 0.15% formic acid and 37.5 ng/ml IS (IS final conc.=25 ng/ml), and 100 microliters brain homogenized solution was mixed with 200 microliters of acetonitrile containing 0.15% formic acid and 60 ng/ml IS (IS final conc.=40 ng/ml). The samples were vortexed 15 sec, incubated at room temp for 10 min and spun 2×13,200 rpm in a standard microcentrifuge. The supernatant was then analyzed by LC/MS/MS (QTRAP® 3200) according to the following parameters:
Ion Source/Gas Parameters: CUR=25, CAD=medium, IS=5000, TEM=700, GS1=70, GS2=70.
Buffer A: Water+0.1% formic acid; Buffer B: ACN+0.1% formic acid; flow rate 1.5 ml/min; column Agilent Eclipse XDB-C18 column, 5 micron packing 50×4.6 mm size; 0-1.5 min 3% B, 1.5-2.0 min gradient to 100% B, 2.0-3.5 min 100% B, 3.5-3.6 min gradient to 3% B, 3.6-4.5 3% B. IS: n-benzylbenzamide (Sigma-Aldrich, lot #02914LH, in ACN, transition 212.1 to 91.1); Compound transition 336.127/100.1.

[3] = source not stated; cited from earlier work
[4] = Maximum tolerated dose, oral gavage 10 days; format: in vivo
Description: Measuring the maximum tolerated dose of Sigma receptor agonists. Male Sprague-Dawley rats (2-3 per dose) were treated by oral gavage with 6, 18, 54, 108, 135 or 150 mg/kg as estimated from in vitro functional assays and estimates of human intake when used as an antitussive. Rats received a single daily dose for 10 days. Weight, water intake, and food intake were measured daily, and rats were assessed for somnolence, activity, sensitivity to touch, and taste aversion. At the conclusion of the study, rats were humanely euthanized and brain tissue was collected and flash frozen.

BDNF = BDNF western blot in ischemic penumbra after tMCAO; format: in vivo, rat; details: single dose 135 mg/kg 48 hours after tMCAO; P=0.02
Description: as §1

[5] = target: T1, human Sigma-2 receptor (S2R) (Homo sapiens, UniProt Q5BJF2); test: Radioligand competition binding at Sigma-2 receptor ([3H]-DTG, untransfected MCF-7); details: displacement of 2.5 nM [3H]DTG, untransfected MCF-7 cells; average of 2-3 experiments ± SEM; read-out: S2R affinity (Ki)
T1 construct: these cells express the endogenous S2R; endogenous in cells; host or cells: untransfected human MCF-7 cells
T1 sequence (Q5BJF2 whole entry): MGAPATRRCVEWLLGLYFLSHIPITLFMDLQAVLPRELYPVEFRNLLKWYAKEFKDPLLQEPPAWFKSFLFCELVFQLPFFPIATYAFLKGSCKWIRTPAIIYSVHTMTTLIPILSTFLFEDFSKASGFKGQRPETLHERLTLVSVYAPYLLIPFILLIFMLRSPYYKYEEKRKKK
Description: Ki values were calculated from IC50 values using the Cheng-Prusoff equation.

[6] = treatment starting 48 hours after tMCAO, 14-15 days after tMCAO, vs vehicle
[7] = 135 mg/kg p.o., listed as oxeladin

CCN(CC)CCOCCOC(=O)C(CC)(CC)c1ccccc1 [Oxeladin]
infarct extent / loss of healthy brain tissue by Nissl staining ([1]; 14-15 days after tMCAO, whole hemisphere, cortex and striatum, vs Vehicle, P<0.05): significantly reduced infarct extent | infarct size by TTC staining [1]: No difference in infarct size | infarct size by TTC staining ([1]; listed as oxeladin): No significant difference in infarct size | astrogliosis (GFAP staining) [1, 6]: no differences between vehicle and oxeladin treated groups; also recorded: did not alter astrogliosis | microgliosis (Iba1 staining) [1, 6]: no differences observed | half-life, brain ([2]; rat brain, 135 mg/kg oral gavage (figure legend)): greater than 4 hours | AUClast, brain ([2]; rat brain, 135 mg/kg p.o.): 423726 ng·min/g | Terminal T1/2 (terminal elimination half-life), brain ([2]; rat brain, 135 mg/kg p.o.): 5.32 h | Tmax (time to obtain maximum concentration), brain ([2]; rat brain, 135 mg/kg p.o.): 0.5 h | half-life, plasma ([2]; rat plasma, 135 mg/kg oral gavage (figure legend)): greater than 4 hours | AUClast, plasma ([2]; rat plasma, 135 mg/kg p.o.): 122293 ng·min/mL | Terminal T1/2 (terminal elimination half-life), plasma ([2]; rat plasma, 135 mg/kg p.o.): 4.15 h | Tmax (time to obtain maximum concentration), plasma ([2]; rat plasma, 135 mg/kg p.o.): 0.5 h | time after dosing at which detected in brain ([2]; 135 mg/kg p.o.): ≤ 30 min | time after dosing at which detected in plasma ([2]; 135 mg/kg p.o.): ≤ 30 min | time after dosing at which detected in brain [2, 7]: 30 min | time after dosing at which detected in plasma [2, 7]: 30 min | LogP [3]: 4.43 | mortality or overt toxicity ([4]; 6-150 mg/kg daily oral gavage, 10 days, male rats): no mortality or overt toxicity observed | well-tolerated dose ([4]; rat, in vivo, po): ≥ 150 mg/kg | ratio of mature 17 kDa BDNF to 42 kDa pro-BDNF in the ischemic penumbra (BDNF): significantly increased | Ki [5]: 148 ± 64 nM
